Several values for one entry are separate records, joined by “and”; a condition that tells them apart may be missing. Equal values may be shown once.
Details: Liquid, Vibrating tube method

CCCCCCCC(=O)OCC(COC(=O)CCCCCCC)(COC(=O)CCCCCCC)COC(=O)CCCCCCC [pentaerythritol tetraoctanoate]
Details | mass density
303.14 K, 4098.2 kPa | 957.9 kg/m3
303.14 K, 4118.3 kPa | 957.9 kg/m3
303.14 K, 4135.4 kPa | 957.9 kg/m3
303.14 K, 4156 kPa | 957.9 kg/m3
303.14 K, 4172.8 kPa | 957.9 kg/m3
303.14 K, 4194.3 kPa | 958 kg/m3
303.14 K, 4211.9 kPa | 958 kg/m3
303.14 K, 4232.9 kPa | 958.1 kg/m3
303.14 K, 4250 kPa | 958 kg/m3
303.14 K, 4271.5 kPa | 958.1 kg/m3
303.14 K, 4289.7 kPa | 958 kg/m3
303.14 K, 4414.6 kPa | 958.1 kg/m3
303.14 K, 4495.8 kPa | 958.1 kg/m3
303.14 K, 4506.9 kPa | 958.2 kg/m3
303.14 K, 4516.1 kPa | 958.2 kg/m3
303.14 K, 4528.5 kPa | 958.3 kg/m3
303.14 K, 4565.1 kPa | 958.2 kg/m3
303.14 K, 4883.3 kPa | 958.4 kg/m3
303.14 K, 4909.3 kPa | 958.4 kg/m3
303.14 K, 4931.2 kPa | 958.5 kg/m3
303.14 K, 4958.7 kPa | 958.5 kg/m3
303.14 K, 5309.4 kPa | 958.7 kg/m3
303.14 K, 5618.4 kPa | 958.8 kg/m3
303.14 K, 5650.1 kPa | 958.8 kg/m3
303.14 K, 5689.5 kPa | 958.9 kg/m3
303.14 K, 5713.9 kPa | 959 kg/m3
303.14 K, 5742.8 kPa | 959 kg/m3
303.14 K, 6420.5 kPa | 959.2 kg/m3
303.14 K, 6514.5 kPa | 959.4 kg/m3
303.14 K, 6535.9 kPa | 959.5 kg/m3
303.14 K, 6561.5 kPa | 959.4 kg/m3
303.14 K, 6885.2 kPa | 959.7 kg/m3
303.14 K, 6937.5 kPa | 959.7 kg/m3
303.14 K, 6965.9 kPa | 959.7 kg/m3
303.14 K, 6989.7 kPa | 959.7 kg/m3
303.14 K, 7018.5 kPa | 959.7 kg/m3
303.14 K, 7042.7 kPa | 959.8 kg/m3
303.14 K, 7072.4 kPa | 959.8 kg/m3
303.14 K, 7331.7 kPa | 960 kg/m3
303.14 K, 7358.2 kPa | 959.8 kg/m3
303.14 K, 7974.8 kPa | 960.4 kg/m3
303.14 K, 8046.4 kPa | 960.3 kg/m3
303.14 K, 8085.7 kPa | 960.5 kg/m3
303.14 K, 8120 kPa | 960.5 kg/m3
303.14 K, 8830.9 kPa | 960.7 kg/m3
303.14 K, 9313 kPa | 961.2 kg/m3
303.14 K, 9339.7 kPa | 961.2 kg/m3
303.14 K, 11022 kPa | 962.1 kg/m3
303.14 K, 11048 kPa | 962.2 kg/m3
303.14 K, 13652 kPa | 963.7 kg/m3
303.14 K, 13735 kPa | 963.7 kg/m3
303.14 K, 13777 kPa | 963.7 kg/m3
303.14 K, 13855 kPa | 963.8 kg/m3
303.14 K, 13898 kPa | 963.8 kg/m3
303.14 K, 14022 kPa | 964 kg/m3
303.15 K, 104.6 kPa | 955.3 kg/m3 and 955.4 kg/m3
303.15 K, 104.7 kPa | 955.5 kg/m3 and 955.4 kg/m3
303.15 K, 104.9 kPa | 955.4 kg/m3
303.15 K, 105.1 kPa | 955.4 kg/m3
303.15 K, 106.7 kPa | 955.3 kg/m3
303.15 K, 113.4 kPa | 955.5 kg/m3
303.15 K, 119.7 kPa | 955.5 kg/m3
303.15 K, 123.3 kPa | 955.5 kg/m3
303.15 K, 127.9 kPa | 955.5 kg/m3
303.15 K, 133.8 kPa | 955.5 kg/m3
303.15 K, 141.4 kPa | 955.5 kg/m3
303.15 K, 151 kPa | 955.4 kg/m3
303.15 K, 163.8 kPa | 955.4 kg/m3
303.15 K, 180.7 kPa | 955.5 kg/m3
303.15 K, 203.5 kPa | 955.6 kg/m3
303.15 K, 234.4 kPa | 955.6 kg/m3
303.15 K, 272.8 kPa | 955.5 kg/m3
303.15 K, 306.2 kPa | 955.6 kg/m3
303.15 K, 333.5 kPa | 955.7 kg/m3
303.15 K, 351.9 kPa | 955.6 kg/m3
303.15 K, 363.2 kPa | 955.6 kg/m3
303.15 K, 377.9 kPa | 955.7 kg/m3
303.15 K, 393.4 kPa | 955.6 kg/m3
303.15 K, 410.1 kPa | 955.7 kg/m3
303.15 K, 427 kPa | 955.6 kg/m3
303.15 K, 438.6 kPa | 955.6 kg/m3
303.15 K, 450.2 kPa | 955.6 kg/m3
303.15 K, 462.7 kPa | 955.6 kg/m3
303.15 K, 474.7 kPa | 955.6 kg/m3
303.15 K, 487.9 kPa | 955.7 kg/m3
303.15 K, 499.6 kPa | 955.6 kg/m3
303.15 K, 514.7 kPa | 955.8 kg/m3
303.15 K, 529.5 kPa | 955.5 kg/m3
303.15 K, 545.8 kPa | 955.7 kg/m3
303.15 K, 562.8 kPa | 955.6 kg/m3
303.15 K, 580.7 kPa | 955.7 kg/m3
303.15 K, 600.2 kPa | 955.7 kg/m3
303.15 K, 620 kPa | 955.7 kg/m3
303.15 K, 635.4 kPa | 955.8 kg/m3
303.15 K, 653.7 kPa | 955.7 kg/m3
303.15 K, 673.1 kPa | 955.8 kg/m3
303.15 K, 690.2 kPa | 955.8 kg/m3
303.15 K, 711.7 kPa | 955.8 kg/m3
303.15 K, 734 kPa | 955.8 kg/m3
303.15 K, 753.9 kPa | 955.8 kg/m3
303.15 K, 778.9 kPa | 955.8 kg/m3
303.15 K, 805.3 kPa | 955.7 kg/m3
303.15 K, 828.4 kPa | 956 kg/m3
303.15 K, 856.4 kPa | 956 kg/m3
303.15 K, 878.8 kPa | 956 kg/m3
303.15 K, 896.7 kPa | 955.9 kg/m3
303.15 K, 918.8 kPa | 955.9 kg/m3
303.15 K, 937.7 kPa | 955.8 kg/m3
303.15 K, 961.3 kPa | 955.9 kg/m3
303.15 K, 986.7 kPa | 956 kg/m3
303.15 K, 1012 kPa | 956 kg/m3
303.15 K, 1034.8 kPa | 956.1 kg/m3
303.15 K, 1062.9 kPa | 956 kg/m3
303.15 K, 1087.6 kPa | 956.1 kg/m3
303.15 K, 1118 kPa | 956.1 kg/m3
303.15 K, 1149.9 kPa | 956 kg/m3
303.15 K, 1183.3 kPa | 956 kg/m3
303.15 K, 1212.4 kPa | 956.1 kg/m3
303.15 K, 1248.7 kPa | 956.1 kg/m3
303.15 K, 1287.1 kPa | 956.2 kg/m3
303.15 K, 1320.4 kPa | 956.1 kg/m3
303.15 K, 1362.3 kPa | 956.1 kg/m3
303.15 K, 1407.7 kPa | 956.3 kg/m3
303.15 K, 1447.7 kPa | 956.2 kg/m3
303.15 K, 1500.9 kPa | 956.2 kg/m3
303.15 K, 1544.9 kPa | 956.4 kg/m3
303.15 K, 1600.2 kPa | 956.4 kg/m3
303.15 K, 1657.7 kPa | 956.3 kg/m3
303.15 K, 1716.5 kPa | 956.4 kg/m3
303.15 K, 1763.5 kPa | 956.4 kg/m3
303.15 K, 1789.9 kPa | 956.6 kg/m3
303.15 K, 1809.7 kPa | 956.6 kg/m3
303.15 K, 1826.2 kPa | 956.5 kg/m3
303.15 K, 1847 kPa | 956.6 kg/m3
303.15 K, 1864.2 kPa | 956.5 kg/m3
303.15 K, 1884.7 kPa | 956.4 kg/m3
303.15 K, 1906.9 kPa | 956.5 kg/m3
303.15 K, 1925.8 kPa | 956.5 kg/m3
303.15 K, 1948 kPa | 956.5 kg/m3
303.15 K, 1967.5 kPa | 956.7 kg/m3
303.15 K, 1990.5 kPa | 956.6 kg/m3
303.15 K, 2013.8 kPa | 956.6 kg/m3
303.15 K, 2034.1 kPa | 956.6 kg/m3
303.15 K, 2058.5 kPa | 956.7 kg/m3
303.15 K, 2083.2 kPa | 956.6 kg/m3
303.15 K, 2104.7 kPa | 956.6 kg/m3
303.15 K, 2130.4 kPa | 956.7 kg/m3

Reference: the NIST ThermoML archive (doi:10.1021/je060271a)
